Assay results: patent publication US20030224942A1, “Alkylamino-1,3,5-triazines, processes for their preparation and their use as herbicides and plant growth regulators” (priority 2001, published 2003)

Columns and labels:
[1] = system: Chenopodium spp., Papaver spp., Polygonum spp., Veronica spp. or Viola spp.; test: Post-emergence effect on weeds (greenhouse pot test, visual scoring); assay type: in vivo, monocotyledonous and dicotyledonous weeds; conditions: treated at three-leaf stage; visual scoring after about 3 to 4 weeks; application rate of 0.5 kg and less of active substance per hectare
[2] = system: Cyperus spp., Echinochloa spp., Digitaria spp., Sagitaria spp. and Scirpus spp.; test: Action on harmful plants in rice (paddy rice conditions, visual scoring); assay type: in vivo, typical rice weeds (gramineous and broad-leaved); conditions: applied into the dammed water, visual scoring about three weeks after application
Outline: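 Under paddy conditions with 2-3 cm dammed water, transplanted and sown rice plus weeds were treated at three-leaf stage (E. crus-galli at 1.5 leaves). Pots stayed in greenhouse under optimum growth conditions for the test period, with visual assessment of damage.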

Compound | herbicidal activity post-emergence against harmful plants [1] | herbicidal activity against harmful plants which are typical for rice crops [2]
CC(F)c1nc(N)nc(NC(C)c2ccc(F)c(C(F)=C(F)F)c2)n1 (stereo not shown) [Product P22.5] | very good herbicidal activity | very good herbicidal activity
C#Cc1cc(C(C)Nc2nc(N)nc(C(C)F)n2)ccc1F (stereo not shown) [Product P22.309] | very good herbicidal activity | very good herbicidal activity
C#Cc1ccc(C(C)Nc2nc(N)nc(C(C)F)n2)cc1C (stereo not shown) [Product P22.335] | very good herbicidal activity | very good herbicidal activity
C#Cc1c(C)cc(C(C)Nc2nc(N)nc(C(C)F)n2)cc1C (stereo not shown) [Product P22.348] | very good herbicidal activity | very good herbicidal activity
C#Cc1c(F)cc(C(C)Nc2nc(N)nc(C(C)F)n2)cc1F (stereo not shown) [Product P22.352] | very good herbicidal activity | very good herbicidal activity
C#Cc1cc(C#C)cc(C(C)Nc2nc(N)nc(C(C)F)n2)c1 (stereo not shown) [Product P22.369] | very good herbicidal activity | very good herbicidal activity
CC#Cc1cc(C(C)Nc2nc(N)nc(C(C)F)n2)ccc1F (stereo not shown) [Product P22.384] | very good herbicidal activity | very good herbicidal activity
CC#Cc1c(F)cc(C(C)Nc2nc(N)nc(C(C)F)n2)cc1F (stereo not shown) [Product P22.428] | very good herbicidal activity | very good herbicidal activity
C=C=Cc1c(F)cc(C(C)Nc2nc(N)nc(C(C)F)n2)cc1F (stereo not shown) [Product P22.656] | very good herbicidal activity | very good herbicidal activity
CCCCC#Cc1cc(C(C)Nc2nc(N)nc(C(C)F)n2)ccc1F (stereo not shown) [Product P22.688] | very good herbicidal activity | very good herbicidal activity
CC(F)C#Cc1cc(C(C)Nc2nc(N)nc(C(C)F)n2)ccc1F (stereo not shown) [Product P22.764] | very good herbicidal activity | very good herbicidal activity
CC(O)C#Cc1cc(C(C)Nc2nc(N)nc(C(C)F)n2)ccc1F (stereo not shown) [Product P22.840] | very good herbicidal activity | very good herbicidal activity
CC(F)c1nc(N)nc(NC(C)c2ccc(F)c(C3CC3)c2)n1 (stereo not shown) [Product P22.916] | very good herbicidal activity | very good herbicidal activity
CC(F)c1nc(N)nc(NC(C)c2cccc(C(F)=C(F)F)c2)n1 (stereo not shown) [Product P22.1567] | very good herbicidal activity | very good herbicidal activity
CC(F)c1nc(N)nc(NC(C)c2ccc(C(F)=C(F)F)cc2)n1 (stereo not shown) [Product P22.1568] | very good herbicidal activity | very good herbicidal activity
C#Cc1cccc(C(C)Nc2nc(N)nc(C(C)F)n2)c1 (stereo not shown) [Product P22.1579] | very good herbicidal activity | very good herbicidal activity
C#Cc1ccc(C(C)Nc2nc(N)nc(C(C)F)n2)cc1 (stereo not shown) [Product P22.1580] | very good herbicidal activity | very good herbicidal activity
CC#Cc1cccc(C(C)Nc2nc(N)nc(C(C)F)n2)c1 (stereo not shown) [Product P22.1582] | very good herbicidal activity | very good herbicidal activity
CC#Cc1ccc(C(C)Nc2nc(N)nc(C(C)F)n2)cc1 (stereo not shown) [Product P22.1583] | very good herbicidal activity | very good herbicidal activity
CCCCC#Cc1ccc(C(C)Nc2nc(N)nc(C(C)F)n2)cc1 (stereo not shown) [Product P22.1595] | very good herbicidal activity | very good herbicidal activity
CC(F)C#Cc1cccc(C(C)Nc2nc(N)nc(C(C)F)n2)c1 (stereo not shown) [Product P22.1597] | very good herbicidal activity | very good herbicidal activity

Compound | herbicidal activity post-emergence against harmful plants [1] | herbicidal activity against harmful plants which are typical for rice crops [2]
CC(F)C#Cc1ccc(C(C)Nc2nc(N)nc(C(C)F)n2)cc1 (stereo not shown) [Product P22.1598] | very good herbicidal activity | very good herbicidal activity
CC(O)C#Cc1cccc(C(C)Nc2nc(N)nc(C(C)F)n2)c1 (stereo not shown) [Product P22.1600] | very good herbicidal activity | very good herbicidal activity
CC(O)C#Cc1ccc(C(C)Nc2nc(N)nc(C(C)F)n2)cc1 (stereo not shown) [Product P22.1601] | very good herbicidal activity | very good herbicidal activity
CC(F)c1nc(N)nc(NC(C)c2cccc(C3CC3)c2)n1 (stereo not shown) [Product P22.1603] | very good herbicidal activity | very good herbicidal activity
CC(F)c1nc(N)nc(NC(C)c2ccc(C3CC3)cc2)n1 (stereo not shown) [Product P22.1604] | very good herbicidal activity | very good herbicidal activity
C#Cc1ccc(C(C)Nc2nc(N)nc(C(C)F)n2)cc1F (stereo not shown) [Product P22.1620] | very good herbicidal activity | very good herbicidal activity
CC(F)c1nc(N)nc(NC(c2cccc(C(F)=C(F)F)c2)C2CC2)n1 (stereo not shown) [Product P24.1567] | very good herbicidal activity | very good herbicidal activity
CC(F)c1nc(N)nc(NC(c2ccc(C(F)=C(F)F)cc2)C2CC2)n1 (stereo not shown) [Product P24.1568] | very good herbicidal activity | very good herbicidal activity
C#Cc1cccc(C(Nc2nc(N)nc(C(C)F)n2)C2CC2)c1 (stereo not shown) [Product P24.1579] | very good herbicidal activity | very good herbicidal activity
C#Cc1ccc(C(Nc2nc(N)nc(C(C)F)n2)C2CC2)cc1 (stereo not shown) [Product P24.1580] | very good herbicidal activity | very good herbicidal activity
CC#Cc1cccc(C(Nc2nc(N)nc(C(C)F)n2)C2CC2)c1 (stereo not shown) [Product P24.1582] | very good herbicidal activity | very good herbicidal activity
CC#Cc1ccc(C(Nc2nc(N)nc(C(C)F)n2)C2CC2)cc1 (stereo not shown) [Product P24.1583] | very good herbicidal activity | very good herbicidal activity
CC(F)c1nc(N)nc(NC(c2cccc(C3CC3)c2)C2CC2)n1 (stereo not shown) [Product P24.1603] | very good herbicidal activity | very good herbicidal activity
CC(F)c1nc(N)nc(NC(c2ccc(C3CC3)cc2)C2CC2)n1 (stereo not shown) [Product P24.1604] | very good herbicidal activity | very good herbicidal activity
CCC(F)c1nc(N)nc(NCc2ccc(F)c(C(F)=C(F)F)c2)n1 (stereo not shown) [Product P26.5] | very good herbicidal activity | very good herbicidal activity
CCC(F)c1nc(N)nc(NCc2cc(F)c(C(F)=C(F)F)c(F)c2)n1 (stereo not shown) [Product P26.49] | very good herbicidal activity | very good herbicidal activity
C#Cc1cc(CNc2nc(N)nc(C(F)CC)n2)ccc1F (stereo not shown) [Product P26.309] | very good herbicidal activity | very good herbicidal activity
C#Cc1c(F)cc(CNc2nc(N)nc(C(F)CC)n2)cc1F (stereo not shown) [Product P26.352] | very good herbicidal activity | very good herbicidal activity
CC#Cc1cc(CNc2nc(N)nc(C(F)CC)n2)ccc1F (stereo not shown) [Product P26.384] | very good herbicidal activity | very good herbicidal activity
CC#Cc1c(F)cc(CNc2nc(N)nc(C(F)CC)n2)cc1F (stereo not shown) [Product P26.428] | very good herbicidal activity | very good herbicidal activity
